Assay results published in ChEMBL document CHEMBL4138146, “A Schmidt rearrangement-mediated synthesis of novel tetrahydro-benzo[1,4]diazepin-5-ones as potential anticancer and antiprotozoal agents” (Eur J Med Chem, 2017).

Experiments:
Assay type in all cases: functional
[1] = tested on: NCI-H522; experiment: Growth inhibition of human NCI-H522 cells assessed as cell growth at 10^-8 M incubated for 48 hrs by sulforhodamine B assay relative to control; conditions: NCI-H522, 48 h, read-out: Activity
[2] = tested on: ACHN; experiment: Growth inhibition of human ACHN cells assessed as cell growth at 10^-5 M incubated for 48 hrs by sulforhodamine B assay relative to control; conditions: read-out: Activity
[3] = tested on: A549; experiment: Growth inhibition of human A549/ATCC cells assessed as cell growth at 10^-4 M incubated for 48 hrs by sulforhodamine B assay relative to control; conditions: A549, 48 h, read-out: Activity
[4] = tested on: HL-60(TB); experiment: Growth inhibition of human HL-60(TB) cells assessed as cell growth at 10^-8 M incubated for 48 hrs by sulforhodamine B assay relative to control; conditions: HL-60, 48 h, read-out: Activity
[5] = tested on: RPMI-8226; experiment: Growth inhibition of human RPMI8226 cells assessed as cell growth at 10^-5 M incubated for 48 hrs by sulforhodamine B assay relative to control; conditions: RPMI-8226, 48 h, read-out: Activity
[6] = tested on: COLO 205; experiment: Growth inhibition of human COLO205 cells assessed as cell growth at 10^-8 M incubated for 48 hrs by sulforhodamine B assay relative to control; conditions: COLO 205, 48 h, read-out: Activity
[7] = tested on: OVCAR-3; experiment: Growth inhibition of human OVCAR3 cells assessed as cell growth at 10^-7 M incubated for 48 hrs by sulforhodamine B assay relative to control; conditions: OVCAR-3, 48 h, read-out: Activity
[8] = tested on: PC-3; experiment: Growth inhibition of human PC3 cells assessed as cell growth at 10^-6 M incubated for 48 hrs by sulforhodamine B assay relative to control; conditions: PC-3, 48 h, read-out: Activity
[9] = tested on: K562; experiment: Growth inhibition of human K562 cells assessed as cell growth at 10^-6 M incubated for 48 hrs by sulforhodamine B assay relative to control; conditions: K562, 48 h, read-out: Activity
[10] = tested on: UACC-257; experiment: Growth inhibition of human UACC257 cells assessed as cell growth at 10^-8 M incubated for 48 hrs by sulforhodamine B assay relative to control; conditions: UACC-257, 48 h, read-out: Activity
[11] = tested on: NCI-H522; experiment: Growth inhibition of human NCI-H522 cells assessed as cell growth at 10^-4 M incubated for 48 hrs by sulforhodamine B assay relative to control; conditions: NCI-H522, 48 h, read-out: Activity
[12] = tested on: MOLT-4; experiment: Growth inhibition of human MOLT4 cells assessed as cell growth at 10^-5 M incubated for 48 hrs by sulforhodamine B assay relative to control; conditions: MOLT-4, 48 h, read-out: Activity
[13] = tested on: NCI-H226; experiment: Growth inhibition of human NCI-H226 cells assessed as cell growth at 10^-7 M incubated for 48 hrs by sulforhodamine B assay relative to control; conditions: NCI-H226, 48 h, read-out: Activity
[14] = tested on: MDA-MB-231; experiment: Growth inhibition of human MDA-MB-231 cells assessed as cell growth at 10^-6 M incubated for 48 hrs by sulforhodamine B assay relative to control; conditions: MDA-MB-231, 48 h, read-out: Activity
[15] = tested on: NCI-H23; experiment: Growth inhibition of human NCI-H23 cells assessed as cell growth at 10^-7 M incubated for 48 hrs by sulforhodamine B assay relative to control; conditions: NCI-H23, 48 h, read-out: Activity
[16] = tested on: NCI-H460; experiment: Growth inhibition of human NCI-H460 cells assessed as cell growth at 10^-6 M incubated for 48 hrs by sulforhodamine B assay relative to control; conditions: NCI-H460, 48 h, read-out: Activity
[17] = tested on: OVCAR-5; experiment: Growth inhibition of human OVCAR5 cells assessed as cell growth at 10^-6 M incubated for 48 hrs by sulforhodamine B assay relative to control; conditions: OVCAR-5, 48 h, read-out: Activity
[18] = tested on: MCF7; experiment: Growth inhibition of human MCF7 cells assessed as cell growth at 10^-4 M incubated for 48 hrs by sulforhodamine B assay relative to control; conditions: MCF7, 48 h, read-out: Activity
[19] = tested on: LOX IMVI; experiment: Growth inhibition of human LOXIMVI cells assessed as cell growth at 10^-4 M incubated for 48 hrs by sulforhodamine B assay relative to control; conditions: read-out: Activity
[20] = tested on: IGROV-1; experiment: Growth inhibition of human IGROV1 cells assessed as cell growth at 10^-5 M incubated for 48 hrs by sulforhodamine B assay relative to control; conditions: IGROV-1, 48 h, read-out: Activity
[21] = tested on: NCI-H322M; experiment: Growth inhibition of human NCI-H322M cells assessed as cell growth at 10^-8 M incubated for 48 hrs by sulforhodamine B assay relative to control; conditions: read-out: Activity
[22] = tested on: OVCAR-3; experiment: Growth inhibition of human OVCAR3 cells assessed as cell growth at 10^-4 M incubated for 48 hrs by sulforhodamine B assay relative to control; conditions: OVCAR-3, 48 h, read-out: Activity
[23] = tested on: SF-295; experiment: Growth inhibition of human SF295 cells assessed as cell growth at 10^-8 M incubated for 48 hrs by sulforhodamine B assay relative to control; conditions: SF-295, 48 h, read-out: Activity
[24] = tested on: 786-0; experiment: Growth inhibition of human 786-0 cells assessed as cell growth at 10^-8 M incubated for 48 hrs by sulforhodamine B assay relative to control; conditions: 786-0, 48 h, read-out: Activity
[25] = tested on: SK-OV-3; experiment: Growth inhibition of human SKOV3 cells assessed as cell growth at 10^-4 M incubated for 48 hrs by sulforhodamine B assay relative to control; conditions: SK-OV-3, 48 h, read-out: Activity
[26] = tested on: OVCAR-3; experiment: Growth inhibition of human OVCAR3 cells assessed as cell growth at 10^-5 M incubated for 48 hrs by sulforhodamine B assay relative to control; conditions: OVCAR-3, 48 h, read-out: Activity
[27] = tested on: SF-268; experiment: Growth inhibition of human SF268 cells assessed as cell growth at 10^-4 M incubated for 48 hrs by sulforhodamine B assay relative to control; conditions: SF-268, 48 h, read-out: Activity
[28] = tested on: MCF7; experiment: Growth inhibition of human MCF7 cells assessed as cell growth at 10^-8 M incubated for 48 hrs by sulforhodamine B assay relative to control; conditions: MCF7, 48 h, read-out: Activity
[29] = tested on: OVCAR-8; experiment: Growth inhibition of human OVCAR8 cells assessed as cell growth at 10^-8 M incubated for 48 hrs by sulforhodamine B assay relative to control; conditions: OVCAR-8, 48 h, read-out: Activity
[30] = tested on: NCI/ADR-RES; experiment: Growth inhibition of human NCI/ADR-RES cells assessed as cell growth at 10^-6 M incubated for 48 hrs by sulforhodamine B assay relative to control; conditions: read-out: Activity
[31] = tested on: MDA-MB-468; experiment: Growth inhibition of human MDA-MB-468 cells assessed as cell growth at 10^-4 M incubated for 48 hrs by sulforhodamine B assay relative to control; conditions: MDA-MB-468, 48 h, read-out: Activity
[32] = tested on: HCT-116; experiment: Growth inhibition of human HCT116 cells assessed as cell growth at 10^-8 M incubated for 48 hrs by sulforhodamine B assay relative to control; conditions: HCT-116, 48 h, read-out: Activity
[33] = tested on: BT-549; experiment: Growth inhibition of human BT549 cells assessed as cell growth at 10^-4 M incubated for 48 hrs by sulforhodamine B assay relative to control; conditions: BT-549, 48 h, read-out: Activity

Q: `CCCCOc1nc2ccccc2cc1C1CNC(=O)c2ccccc2N1` (stereo not drawn) was tested. Which growth at 0.01 µM [1] did it give?
A: Its growth at 0.01 µM is 90%.

Q: And the growth at 10 µM [2]?
A: The growth at 10 µM was 22%.

Q: What about the growth at 100 µM [3] of the same compound?
A: Its growth at 100 µM is -75%.

Q: And the growth at 0.01 µM [4]?
A: The growth at 0.01 µM was 98%.

Q: What about the growth at 10 µM [5] of the same compound?
A: The growth at 10 µM was 9%.

Q: And the growth at 0.01 µM [6]?
A: Its growth at 0.01 µM is 96%.

Q: And the growth at 0.1 µM [7]?
A: The growth at 0.1 µM was 98%.

Q: And the growth at 1 µM [8]?
A: Its growth at 1 µM is 89%.

Q: What about the growth at 1 µM [9] of the same compound?
A: The growth at 1 µM was 46%.

Q: And the growth at 0.01 µM [10]?
A: Its growth at 0.01 µM is 97%.

Q: What about the growth at 100 µM [11] of the same compound?
A: Its growth at 100 µM is -35%.

Q: And the growth at 10 µM [12]?
A: The growth at 10 µM was 6%.

Q: And the growth at 0.1 µM [13]?
A: The growth at 0.1 µM was 79%.

Q: What about the growth at 1 µM [14] of the same compound?
A: The growth at 1 µM was 85%.

Q: And the growth at 0.1 µM [15]?
A: Its growth at 0.1 µM is 95%.

Q: What about the growth at 1 µM [16] of the same compound?
A: The growth at 1 µM was 94%.

Q: What about the growth at 1 µM [17] of the same compound?
A: Its growth at 1 µM is 98%.

Q: And the growth at 100 µM [18]?
A: Its growth at 100 µM is -40%.

Q: What about the growth at 100 µM [19] of the same compound?
A: The growth at 100 µM was -81%.

Q: What about the growth at 10 µM [20] of the same compound?
A: The growth at 10 µM was 31%.

Q: What about the growth at 0.01 µM [21] of the same compound?
A: Its growth at 0.01 µM is 94%.

Q: And the growth at 100 µM [22]?
A: The growth at 100 µM was -92%.

Q: And the growth at 0.01 µM [23]?
A: Its growth at 0.01 µM is 84%.

Q: What about the growth at 0.01 µM [24] of the same compound?
A: The growth at 0.01 µM was 99%.

Q: And the growth at 100 µM [25]?
A: Its growth at 100 µM is -21%.

Q: And the growth at 10 µM [26]?
A: Its growth at 10 µM is -53%.

Q: What about the growth at 100 µM [27] of the same compound?
A: Its growth at 100 µM is 1%.

Q: And the growth at 0.01 µM [28]?
A: The growth at 0.01 µM was 88%.

Q: And the growth at 0.01 µM [29]?
A: The growth at 0.01 µM was 100%.

Q: And the growth at 1 µM [30]?
A: The growth at 1 µM was 70%.

Q: And the growth at 100 µM [31]?
A: Its growth at 100 µM is -43%.

Q: And the growth at 0.01 µM [32]?
A: The growth at 0.01 µM was 101%.

Q: And the growth at 100 µM [33]?
A: Its growth at 100 µM is -25%.
